Measured values from ChEMBL document CHEMBL1208766, “Synthesis of potent chemical inhibitors of dynamin GTPase” (Bioorg Med Chem Lett, 2010).
The source made the active and inactive calls. No cut-off for these calls is given here.

Key:
Dynamin-1 (Homo sapiens) = biological target: T1, Dynamin-1 (Homo sapiens) (UniProt Q05193); experiment: (§1) Inhibition of GTPase activity of Dynamin 1; parameters: concentration or dose not given beside the values; conditions: concentration not given here
T1 sequence (whole entry): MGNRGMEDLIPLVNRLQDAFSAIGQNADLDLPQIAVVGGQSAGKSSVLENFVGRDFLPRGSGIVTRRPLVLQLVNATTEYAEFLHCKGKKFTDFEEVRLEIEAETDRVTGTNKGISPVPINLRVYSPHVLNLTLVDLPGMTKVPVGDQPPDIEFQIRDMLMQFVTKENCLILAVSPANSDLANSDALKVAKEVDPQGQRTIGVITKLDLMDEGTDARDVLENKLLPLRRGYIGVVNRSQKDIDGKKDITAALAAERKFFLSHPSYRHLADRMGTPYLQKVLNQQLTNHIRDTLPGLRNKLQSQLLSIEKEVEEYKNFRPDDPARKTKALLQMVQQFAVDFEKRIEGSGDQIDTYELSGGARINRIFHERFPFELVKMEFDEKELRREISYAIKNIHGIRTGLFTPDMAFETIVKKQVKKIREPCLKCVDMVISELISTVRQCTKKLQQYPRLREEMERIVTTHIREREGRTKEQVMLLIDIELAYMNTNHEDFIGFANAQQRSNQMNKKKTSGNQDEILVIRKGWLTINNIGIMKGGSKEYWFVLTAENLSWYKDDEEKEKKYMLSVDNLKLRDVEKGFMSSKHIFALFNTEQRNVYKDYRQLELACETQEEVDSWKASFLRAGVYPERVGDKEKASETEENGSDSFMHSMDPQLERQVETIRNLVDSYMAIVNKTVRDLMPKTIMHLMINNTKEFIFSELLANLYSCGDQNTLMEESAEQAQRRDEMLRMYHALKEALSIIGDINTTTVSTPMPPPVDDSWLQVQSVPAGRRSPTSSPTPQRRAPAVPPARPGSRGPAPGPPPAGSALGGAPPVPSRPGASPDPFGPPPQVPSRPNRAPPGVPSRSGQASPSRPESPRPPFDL

COS-7 [1] = experiment: Inhibition of transferrin uptake in african green monkey COS7 cells by microscopic TexasRed imaging; format: functional, cell-based; conditions: Chlorocebus aethiops
Dynamin-1 = biological target: T2, Dynamin-1 (Homo sapiens, UniProt Q05193); experiment: as §1
T2 sequence (Q05193 whole entry): T1 sequence (whole entry)

[2] = tested on: Cell division control protein 42 homolog; experiment: Inhibition of GTPase activity of Cdc42
[3] = Cytotoxicity against african green monkey COS7 cells after 12 hrs; format: cell-based; conditions: chlorocebus aethiops, cos-7, 12 h
COS-7 [4] = experiment: Inhibition of dynamin 1 mediated membrane fission in african green monkey Cos7 cells transfected with mRFP-LCa at 10 uM by total internal reflection fluorescence microscopy; format: cell-based; conditions: Chlorocebus aethiops
COS-7 [5] = experiment: Inhibition of transferrin uptake in african green monkey COS7 cells after 30 mins by microscopic TexasRed imaging; format: functional, cell-based; conditions: Chlorocebus aethiops
Homo sapiens = species on record: Homo sapiens; experiment: Inhibition of GTPase activity of human mitochondrial Drp1 expressed in Escherichia coli BL-21

## Cc1ccc(/C=N/NC(=O)c2cc3ccccc3cc2O)cc1C
Dynamin-1 (Homo sapiens)
  inhibition: 0%

## O=C(NCCc1ccc(O)cc1)c1ccc2ccccc2c1
Dynamin-1 (Homo sapiens)
  inhibition: 0%

## NCCc1ccc(OC(=O)c2ccc3ccccc3c2)cc1
Dynamin-1 (Homo sapiens)
  inhibition: 0%

## Cc1ccc(/C=N/NC(=O)c2ccc3ccccc3c2)cc1C
Dynamin-1 (Homo sapiens)
  inhibition: 0%

## O=C(N/N=C/c1ccc(O)c(O)c1)c1ccc2ccccc2c1
COS-7 [1]
  IC50: 4 µM
Dynamin-1 (Homo sapiens)
  inhibition: 73.2%
Dynamin-1
  IC50: 5.1 µM
[2]
  inhibition: inactive
[3]
  Activity: Non-toxic
COS-7 [4]
  inhibition: Active
COS-7 [5]
  inhibition: inactive
Homo sapiens
  inhibition: Active

## O=C(N/N=C/c1cc(O)ccc1[N+](=O)[O-])c1cc2ccccc2cc1O
Dynamin-1 (Homo sapiens)
  inhibition: 0%

## O=C(N/N=C/c1ccc(Cl)c(Cl)c1)c1cc2ccccc2cc1O
Dynamin-1 (Homo sapiens)
  inhibition: 0%

## COc1ccc(/C=N/NC(=O)c2cc3ccccc3cc2O)cc1O
COS-7 [1]
  IC50: 2.6 µM
Dynamin-1 (Homo sapiens)
  inhibition: 74.7%
Dynamin-1
  IC50: 3.6 µM
[2]
  inhibition: inactive
[3]
  Activity: Non-toxic
COS-7 [4]
  inhibition: Active
COS-7 [5]
  inhibition: inactive
Homo sapiens
  inhibition: Active

## O=C(N/N=C/c1ccc(O)c(O)c1)c1cc2ccccc2cc1O [DYNASORE]
COS-7 [1]
  IC50: 15 µM
Dynamin-1 (Homo sapiens)
  inhibition: 69.8%
Dynamin-1
  IC50: 10.8 µM
COS-7 [4]
  inhibition: inactive
Homo sapiens
  inhibition: Active

## O=C(N/N=C/c1ccc(Cl)c(Cl)c1)c1ccc2ccccc2c1
Dynamin-1 (Homo sapiens)
  inhibition: 0%

## O=C(OP(=O)(N1CCOC1=O)N1CCOC1=O)c1ccc2ccccc2c1
COS-7 [1]
  inhibition: Active
Dynamin-1 (Homo sapiens)
  inhibition: 0%
